Data as given in PMC10965373 (ChemMedChem, 2024).
Converted amounts (≈) assume the structure as drawn. “And” between values parts separate entries of the source, which are not always exact repeats. Identical values can stand only once.

Legend:
[1] = male Sprague Dawley rats; cited from earlier work
[2] = In vitro microsomal stability, human microsomal suspension
[3] = In vitro microsomal stability, murine microsomal suspension
[4] = after 4 h of incubation, Medicines for Malaria Venture data; cited from earlier work
[5] = tested on: Mycobacterium abscessus ATCC 19977; conditions: in vitro; cited from earlier work
[6] = cited from earlier work
[7] = cited from earlier work; remark: listed apart in the source
[8] = tested on: human kidney epithelia cells HEK293; assay: Single concentration cytotoxicity against HEK293; conditions: HEK293, 50 μM, 24 h, relative to DMSO-treated cells
[9] = tested on: Mycobacterium tuberculosis H37Rv; conditions: in vitro; cited from earlier work
[10] = Single concentration cytotoxicity against HEK293; conditions: human
[11] = 2 μM substrate, 0.42 mg/mL microsomal proteins, 100 mM phosphate buffer pH 7.4
[12] = after 7 min, 2 μM substrate, 0.42 mg/mL microsomal proteins, pH 7.4

| Compound | plasma levels after oral administration [1] | half-life in human microsomal suspension [2, 11] | remaining substance in human microsomal suspension [2, 12] | half-life in murine microsomal suspension [3, 11] | remaining substance in murine microsomal suspension [3, 12] | remaining substance in murine plasma [4] | MIC90 against Mabs [5] | stability during incubation with human liver microsomes [6] | stability during incubation with murine liver microsomes [7] | relative cell viability [8] | stability in human microsomal suspension ([2]; human microsomal suspension) | stability in murine microsomal suspension ([3]; murine microsomal suspension) | MIC90 against Mtb [9] | viability at 24 h, 50 µM [10] |
| --- | --- | --- | --- | --- | --- | --- | --- | --- | --- | --- | --- | --- | --- | --- |
| O=C(N[C@H](Cc1ccccc1)C(=O)Nc1ccccc1N1CCOCC1)c1cccs1 [MMV] | insufficient plasma levels | 1.2 min | 2% | 0.9 min | 0% | 60% | 6.25 µM (≈ 2.72 µg/mL) | highly unstable | highly unstable | 67% |  |  |  |  |
| O=C(N[C@H](Cc1ccccc1)C(=O)Nc1ccccc1N1CCS(=O)(=O)CC1)c1ccccc1F [compound 2, (2R)-2-[(2-fluorophenyl)formamido]-N-[2-(1,1-dioxo-1λ6-thiomorpholin-4-yl)phenyl]-3-phenylpropanamide] |  |  |  |  |  |  | 0.78 µM and < 1 µM | highly unstable | highly unstable |  | comparably low stabilities | comparably low stabilities | < 1 µM | 73% |
